Measurements as given in ChEMBL document CHEMBL1150263, “Combining docking, molecular dynamics and the linear interaction energy method to predict binding modes and affinities for non-nucleoside inhibitors to HIV-1 reverse transcriptase” (J Med Chem, 2008).

Molecular target: Human immunodeficiency virus type 1 reverse transcriptase (Human immunodeficiency virus 1, UniProt Q72547)
Assay: Inhibition of HIV1 reverse transcriptase

Structure (SMILES)	IC50 [µM]
CCNC(=S)NNc1c(Cc2cccc(C)c2)c(CC)c(C)[nH]c1=O	25.1
Cc1cc(C)cc(Cc2c3c([nH]c(=O)c2N(C)C)CCCC3)c1	0.01
CCc1[nH]c(=O)c(N(C)C)c(Cc2cc(C)cc(C)c2)c1C	0.01
CCc1c(C)[nH]c(=O)c(NNC(N)=S)c1Cc1cccc(C)c1	0.316
Cc1cc(C)cc(Cc2c(C)c(C(C)C)[nH]c(=O)c2N(C)C)c1	0.794
CCc1c(C)[nH]c(=O)c(N(C)C)c1Cc1cc(C)cc(C)c1	0.008
Cc1cc(C)cc(Cc2c(CC(C)C)c(C)[nH]c(=O)c2N(C)C)c1	0.05

Further lines, results first:

IC50 [µM]	Structure (SMILES)
3.16	CCc1c(C)[nH]c(=O)c(NNC(=S)Nc2ccccc2)c1Cc1cccc(C)c1
0.398	Cc1cc(C)cc(Cc2cc(C)[nH]c(=O)c2N(C)C)c1
0.005	CCC1C(Cc2cccc(C)c2)=C(N(C)CCO)C(=O)NC1C (stereo not drawn)
0.05	CCCc1c(C)[nH]c(=O)c(N(C)C)c1Cc1cc(C)cc(C)c1
7.94	Cc1cc(C)cc(Cc2cc[nH]c(=O)c2N(C)C)c1
0.005	Cc1cc(C)cc(Cc2c(C)c(C)[nH]c(=O)c2N(C)C)c1
